The target of one experiment is CD16a (F Variant) (Homo sapiens, UniProt P08637). In words: FcγRIII (CD16a) SPR (Method A and/or Method B), F variant. In kind it is binding.
Another experiment has as its target CD16a (V Variant) (Homo sapiens, UniProt P08637, F176V). In words: FcγRIII (CD16a) SPR (Method A and/or Method B), V variant. It is filed as binding.
A further experiment has as its target T1, Fc-tagged human NKp46 (Homo sapiens, UniProt O76036).
T1 construct: purchased ACROBiosystems NC1-H5257
In words: NKp46 SPR assay (Method 1 and/or Method 2). In kind it is binding. As to conditions: SPR Method 1 and/or Method 2, Table 3B. In short, it runs like this: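 Method 1: biotinylated Avi-tag NKp46-Fc on streptavidin chip, peptides to 100-5000 nM top in PBS/0.05% Tween 20, 0.5% DMSO; 1:1 kinetic fit with mass transport. Method 2: NKp46-Fc captured by anti-Fc, PBS-P+ 2% DMSO; steady-state or kinetic 1:1 fit. Both 25° C, 50 μl/min, 60 s association.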

Experiment [1] addresses T2, human NKp46-his tagged protein (Homo sapiens, UniProt O76036).
T2 construct: His tag; purchased AcroBiosystems
The experiment in a line: NKp46 Fluorescence Polarization (FP) competition binding assay, tracer BCY15035.

Experiment [2] concerns the target T3, CD16a/FCgRIIIa (F158 variant) (Homo sapiens, UniProt P08637).
T3 construct: host or cells: HEK293
The experiment in a line: CD16a/FCgRIIIa HTRF assay (IgG competition on HEK293 cells). It is filed as binding.

The mark [3] stands for this setting: SPR Method A and/or B, Table 6B, read-out: Kd (nM) (F Variant).
Where [4] appears, read: SPR Method A and/or B, Table 6B, read-out: Kd (nM) (V Variant).

This is an account of results in patent US20240108738A1, “BICYCLIC PEPTIDE LIGANDS SPECIFIC FOR NK CELLS” (Bicycle Tx Limited, priority 2021, published 2024).

Read-outs that look alike come from different tables or passages of the source. Numbered stars: 1 amine (or outer) side, 2 acyl side, 3 side chain; on linkers, the order of the positions; unused ones are H or OH. Bridge positions count the residues as written; N and C are the ends. Square brackets hold non-standard residues; d marks the D form. Peptide text beside a SMILES is read from it. * marks the point of attachment. TATA = O=C(CC[*:1])N1CN(C(=O)CC[*:2])CN(C(=O)CC[*:3])C1; Biotin = O=C1N[C@H]2[C@H](CS[C@H]2CCCCC(=O)*)N1; Cba = N[C@@H](CC1CCC1)C(=O)O; Sar = CNCC(=O)O

For `CC(C)C[C@@H]1NC(=O)[C@@H]2CCCN2C(=O)[C@H](Cc2c[nH]cn2)NC(=O)[C@@H]2CSCCC(=O)N3CN(CN(C3)C(=O)CCSC[C@H](NC(=O)[C@H](C)N)C(=O)N3CCC[C@H]3C(=O)N3CCC[C@H]3C(=O)N[C@@H](CCC(=O)O)C(=O)N[C@@H](C(C)C)C(=O)N[C@@H](Cc3ccccc3)C(=O)N2)C(=O)CCSC[C@@H](C(=O)N[C@@H](C)C(N)=O)NC(=O)[C@H](CC(=O)O)NC1=O` [BCY11809, A-(SEQ ID NO: 170)-A] (H-ACPPEVFCHPLDCA-NH2; linker 2-8-13 via TATA; N-terminus and C-terminus assumed), the Kd is 28600 nM on CD16a (F Variant) (setting [3]) and 4330 nM on CD16a (V Variant) (setting [4]).

At Fc-tagged human NKp46, `CC(C)C[C@@H]1NC(=O)[C@H](Cc2ccc(O)cc2)NC(=O)[C@H](CC(=O)O)NC(=O)[C@@H]2CCCN2C(=O)[C@H](CC(C)C)NC(=O)[C@H](Cc2ccc(O)cc2)NC(=O)[C@@H](NC(=O)[C@H](C)N)CSCCC(=O)N2CN3CN(C2)C(=O)CCSC[C@H](NC1=O)C(=O)N[C@H](C)C(=O)N[C@@H](CC(=O)O)C(=O)N[C@@H](CCC(=O)O)C(=O)N[C@@H](Cc1ccc(O)cc1)C(=O)N[C@H](C(=O)N[C@@H](C)C(N)=O)CSCCC3=O` [BCY15650, A-(SEQ ID NO: 26)-A] (H-ACYLPDYLC[dA]DEYCA-NH2; linker 2-9-14 via TATA; N-terminus assumed) returned a Kd of 0.01 ± 0.003 µM. The same compound yielded a Ki in experiment [1] of 0.016 µM.

With `CC(C)C[C@@H]1NC(=O)[C@@H]2CCCN2C(=O)[C@H](Cc2c[nH]cn2)NC(=O)[C@@H]2CSCCC(=O)N3CN(CN(C3)C(=O)CCSC[C@H](NC(=O)[C@H](C)N)C(=O)N3CCC[C@H]3C(=O)N3CCC[C@H]3C(=O)N[C@@H](CCC(N)=O)C(=O)N[C@@H](C(C)C)C(=O)N[C@@H](Cc3ccc(O)cc3)C(=O)N2)C(=O)CCSC[C@@H](C(=O)N[C@@H](C)C(N)=O)NC(=O)[C@H](CC(=O)O)NC1=O` [BCY11812, A-(SEQ ID NO: 173)-A] (H-ACPPQVYCHPLDCA-NH2; linker 2-8-13 via TATA; C-terminus assumed), the results for the Kd at CD16a (F Variant) (setting [3]) and on CD16a (V Variant) (setting [4]) were 11800 nM and 2400 nM, respectively.

For `CC(C)C[C@@H]1NC(=O)[C@H](Cc2ccc(O)cc2)NC(=O)[C@H](CC(=O)O)NC(=O)[C@@H]2CCCN2C(=O)[C@H](CC2CCC2)NC(=O)[C@H](Cc2ccc(O)cc2)NC(=O)[C@@H](NC(=O)[C@H](C)N)CSCCC(=O)N2CN3CN(C2)C(=O)CCSC[C@@H](C(=O)N[C@@H](C)C(N)=O)NC(=O)[C@H](Cc2ccc(O)cc2)NC(=O)[C@H](CCC(=O)O)NC(=O)[C@H](CC(=O)O)NC(=O)CNC(=O)[C@H](CSCCC3=O)NC1=O` [BCY15639, A-(SEQ ID NO: 16)-A] (H-ACY[Cba]PDYLCGDEYCA-NH2; linker 2-9-14 via TATA), the affinity in experiment [1], expressed as Ki, was 0.017 µM.

In experiment [1], `CC(=O)N[C@H]1CSCCC(=O)N2CN3CN(C2)C(=O)CCSC[C@H](NC(=O)[C@H](CC(C)C)NC(=O)[C@H](Cc2ccc(O)cc2)NC(=O)[C@H](CC(=O)O)NC(=O)[C@@H]2CCCN2C(=O)[C@H](CC2CCC2)NC(=O)[C@H](Cc2ccc(O)cc2)NC1=O)C(=O)N[C@H](C)C(=O)N[C@@H](CC(=O)O)C(=O)N[C@@H](CCC(=O)O)C(=O)N[C@@H](Cc1ccc(O)cc1)C(=O)N[C@H](C(N)=O)CSCCC3=O` [BCY16133, Ac-(SEQ ID NO: 40)] (Ac-CY[Cba]PDYLC[dA]DEYC-NH2; linker 1-8-13 via TATA; C-terminus assumed) returned a Ki of 0.01 µM. This Ki lies about 1.7-fold lower than the previous one.

Compound `C[C@H](N)C(=O)N[C@H]1CSCc2nc3nc(n2)CSC[C@H](NC(=O)[C@@H]2CCCN2C(=O)[C@H](CCC(=O)O)NC(=O)[C@H](CO)NC(=O)[C@@H]2C[C@@H](O)CN2C(=O)[C@H](Cc2c[nH]cn2)NC(=O)[C@H](Cc2c[nH]c4ccccc24)NC(=O)[C@H](CCCNC(=N)N)NC1=O)C(=O)NCC(=O)N[C@@H](C)C(=O)N[C@@H](Cc1c[nH]c2ccccc12)C(=O)N[C@H](C(=O)N[C@@H](C)C(N)=O)CSC3` [BCY20383, A-(SEQ ID NO: 228)-A] showed an IC50 in experiment [2] of 1.11 µM.

For `CC(C)C[C@@H]1NC(=O)[C@@H]2CCCN2C(=O)[C@H](Cc2c[nH]cn2)NC(=O)[C@@H]2CSCCC(=O)N3CN(CN(C3)C(=O)CCSC[C@H](NC(=O)[C@H](C)N)C(=O)N3CCC[C@H]3C(=O)N3CCC[C@H]3C(=O)N[C@@H](CCC(=O)O)C(=O)N[C@@H](C(C)C)C(=O)N[C@@H](Cc3c[nH]c4ccccc34)C(=O)N2)C(=O)CCSC[C@@H](C(=O)N[C@@H](C)C(N)=O)NC(=O)[C@H](CC(=O)O)NC1=O` [BCY11811, A-(SEQ ID NO: 172)-A] (H-ACPPEVWCHPLDCA-NH2; linker 2-8-13 via TATA), the values for the dissociation constant (Kd) on CD16a (F Variant) (setting [3]) and on CD16a (V Variant) (setting [4]) were 8240 nM and 1230 nM, respectively.

As to `CC(C)C[C@@H]1NC(=O)[C@@H]2CCCN2C(=O)[C@H](Cc2c[nH]cn2)NC(=O)[C@@H]2CSCCC(=O)N3CN(CN(C3)C(=O)CCSC[C@H](NC(=O)[C@H](C)N)C(=O)N3CCC[C@H]3C(=O)N3CCC[C@H]3C(=O)N[C@@H]([C@@H](C)O)C(=O)N[C@@H](C(C)C)C(=O)N[C@@H](Cc3ccc(O)cc3)C(=O)N2)C(=O)CCSC[C@@H](C(=O)N[C@@H](C)C(N)=O)NC(=O)[C@H](CC(=O)O)NC1=O` [BCY11808, A-(SEQ ID NO: 60)-A], the Kd on CD16a (V Variant) (setting [4]) is 3710 nM. Besides, the IC50 in experiment [2] (HTRF, competition with IgG-d2 on HEK293 cells expressing Terbium-labelled CD16a, 2 h at RT, read-out: IC50) was 9.44 µM.

As for `CC(C)C[C@@H]1NC(=O)CNC(=O)[C@H](C(C)C)NC(=O)[C@@H](N)CSCc2nc3nc(n2)CSC[C@H](NC(=O)[C@@H]2CCCN2C(=O)CNC(=O)[C@H](CC(C)C)NC(=O)[C@H](CCC(=O)O)NC(=O)[C@H](CCC(=O)O)NC1=O)C(=O)N[C@@H](CO)C(=O)N[C@@H](CC(=O)O)C(=O)N[C@@H](CC(C)C)C(=O)N[C@H](C(N)=O)CSC3` [BCY16494, (SEQ ID NO: 62)], the Kd stood at 2870 nM at CD16a (F Variant) and 2820 nM on CD16a (V Variant).

Regarding `CC(C)C[C@@H]1NC(=O)[C@H](Cc2ccc(O)cc2)NC(=O)[C@@H](NC(=O)[C@H](C)N)CSCCC(=O)N2CN3CN(C2)C(=O)CCSC[C@@H](C(=O)N[C@@H](C)C(N)=O)NC(=O)[C@H](Cc2ccc(O)cc2)NC(=O)[C@H](CCC(=O)O)NC(=O)[C@H](CC(=O)O)NC(=O)CNC(=O)[C@H](CSCCC3=O)NC(=O)[C@H](CC(C)(C)C)NC(=O)[C@H](Cc2c[nH]c3ccccc23)NC(=O)[C@H](CC(=O)O)NC(=O)[C@@H]2CCCN2C1=O` [BCY15648, A-(SEQ ID NO: 24)-A], the Ki in experiment [1] turned out to be 1.62 µM.

Consider `CC(C)C[C@@H]1NC(=O)CNC(=O)[C@H](C(C)C)NC(=O)[C@@H](NC(=O)[C@H](C)N)CSCc2nc3nc(n2)CSC[C@H](NC(=O)[C@@H]2CCCN2C(=O)CNC(=O)[C@H](CC(C)C)NC(=O)[C@H](CCC(=O)O)NC(=O)[C@H](CCC(=O)O)NC1=O)C(=O)N[C@@H](CO)C(=O)N[C@@H](CC(=O)O)C(=O)N[C@@H](CC(C)C)C(=O)N[C@H](C(=O)N[C@@H](C)C(N)=O)CSC3` [BCY16493, A-(SEQ ID NO: 62)-A], for which the Kd at CD16a (V Variant) amounted to 7330 nM. In addition, the IC50 in experiment [2] was 4.79 µM.

Regarding `CC(C)C[C@@H]1NC(=O)[C@@H]2CCCN2C(=O)[C@H](Cc2c[nH]cn2)NC(=O)[C@@H]2CSCCC(=O)N3CN(CN(C3)C(=O)CCSC[C@H](NC(=O)[C@H](C)N)C(=O)N3CCC[C@H]3C(=O)N3CCC[C@H]3C(=O)N[C@@H](CCC(=O)O)C(=O)N[C@@H](C(C)C)C(=O)N[C@@H](Cc3c[nH]c4ccccc34)C(=O)N2)C(=O)CCSC[C@@H](C(=O)N[C@@H](C)C(=O)N(C)CC(=O)N(C)CC(=O)N(C)CC(=O)N(C)CC(=O)N(C)CC(=O)N(C)CC(=O)N[C@@H](CCCCNC(=O)CCCC[C@@H]2SC[C@@H]3NC(=O)N[C@@H]32)C(N)=O)NC(=O)[C@H](CC(=O)O)NC1=O` [BCY12622, A-(SEQ ID NO: 174)-A-[Sar6]-[KBiot]] (H-ACPPEVWCHPLDCA[Sar][Sar][Sar][Sar][Sar][Sar]K(Biotin)-NH2; linker 2-8-13 via TATA; N-terminus assumed), the Kd on CD16a (F Variant) (setting [3]) is 1000 nM; at CD16a (V Variant) (setting [4]), 4000 nM.

Consider `CC(C)C[C@@H]1NC(=O)[C@@H]2CCCN2C(=O)[C@H](Cc2c[nH]cn2)NC(=O)[C@@H]2CSCCC(=O)N3CN(CN(C3)C(=O)CCSC[C@H](NC(=O)[C@H](C)N)C(=O)N3CCC[C@H]3C(=O)N3CCC[C@H]3C(=O)N[C@@H](C)C(=O)N[C@@H](C(C)C)C(=O)N[C@@H](Cc3ccc(O)cc3)C(=O)N2)C(=O)CCSC[C@@H](C(=O)N[C@@H](C)C(N)=O)NC(=O)[C@H](CC(=O)O)NC1=O` [BCY11673, A-(SEQ ID NO: 169)-A] (H-ACPPAVYCHPLDCA-NH2; linker 2-8-13 via TATA; C-terminus assumed), for which the Kd worked out at 17100 nM on CD16a (F Variant) (setting [3]) and 3310 nM at CD16a (V Variant) (setting [4]).

For the compound `CC(C)C[C@@H]1NC(=O)[C@@H]2CCCN2C(=O)[C@H](Cc2c[nH]cn2)NC(=O)[C@@H]2CSCCC(=O)N3CN(CN(C3)C(=O)CCSC[C@H](NC(=O)[C@H](C)N)C(=O)N3CCC[C@H]3C(=O)N3CCC[C@H]3C(=O)N[C@@H](CCC(=O)O)C(=O)N[C@@H](C(C)C)C(=O)N[C@@H](Cc3ccc(O)cc3)C(=O)N2)C(=O)CCSC[C@@H](C(=O)N[C@@H](C)C(N)=O)NC(=O)[C@H](CC(=O)O)NC1=O` [BCY11810, A-(SEQ ID NO: 171)-A] (H-ACPPEVYCHPLDCA-NH2; linker 2-8-13 via TATA), the Kd on CD16a (F Variant) (setting [3]) was determined as 3610 nM; on CD16a (V Variant) (setting [4]), 832 nM.
